One data set has as its target T1, human recombinant MAO A (Homo sapiens, UniProt P21397).
T1 construct: purchased Sigma Aldrich, Milan, Italy
T1 sequence (P21397 1-527): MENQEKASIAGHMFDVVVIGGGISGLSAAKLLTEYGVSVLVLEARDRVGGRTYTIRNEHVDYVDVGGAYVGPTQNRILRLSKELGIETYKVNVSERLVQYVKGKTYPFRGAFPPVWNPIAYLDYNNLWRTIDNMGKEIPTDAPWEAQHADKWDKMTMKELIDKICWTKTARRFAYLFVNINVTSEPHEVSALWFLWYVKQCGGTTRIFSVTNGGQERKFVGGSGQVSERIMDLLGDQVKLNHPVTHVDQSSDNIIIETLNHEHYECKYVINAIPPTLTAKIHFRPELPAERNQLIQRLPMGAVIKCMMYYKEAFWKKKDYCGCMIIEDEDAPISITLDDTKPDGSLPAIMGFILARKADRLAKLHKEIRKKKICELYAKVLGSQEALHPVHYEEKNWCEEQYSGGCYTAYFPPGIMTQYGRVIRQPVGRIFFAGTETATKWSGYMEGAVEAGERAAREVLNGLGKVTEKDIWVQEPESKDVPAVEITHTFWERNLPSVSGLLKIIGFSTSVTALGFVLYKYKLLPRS
The experiment in a line: biochemical. The following applies: for inhibition at 10 µM: read-out: MAO A % inhibition at 10 μM, mean ±SEM of three. As for the experimental part:
(§1) In vitro enzymatic screening toward ChEs was carried out according to the known Ellman’s protocol, by using eeAChE and esBChE as highly homologous and cheaper surrogates for human enzymes. The enzyme inhibition assays on human MAOs were performed by applying already reported methods.
(§2) All enzymes and reagents were purchased from Sigma Aldrich, Milan, Italy. Inhibition of human recombinant MAO A and B was assayed by monitoring the fluorescence of 4-hydroxyquinoline produced from the oxidation of substrate kynuramine, following a previously published method. Acetylcholinesterase from electric eel and butyrylcholinesterase from equine serum were used in the Ellman’s spectrophotometric method as already described. In all cases, a 96-well plate procedure was used with an Infinite M1000 Pro plate reader (Tecan, Cernusco sul Naviglio, Italy). Inhibition values were determined as IC50 values by statistical analysis using Prism (GraphPad Prism version 5.00 for Windows, GraphPad Software, San Diego, CA, USA).

The target of data set [1] is T2, butyrylcholinesterase from equine serum (Equus caballus, UniProt P81908).
T2 construct: butyrylcholinesterase from equine serum; purchased Sigma Aldrich, Milan, Italy; host or cells: equine serum
T2 sequence (P81908 whole entry): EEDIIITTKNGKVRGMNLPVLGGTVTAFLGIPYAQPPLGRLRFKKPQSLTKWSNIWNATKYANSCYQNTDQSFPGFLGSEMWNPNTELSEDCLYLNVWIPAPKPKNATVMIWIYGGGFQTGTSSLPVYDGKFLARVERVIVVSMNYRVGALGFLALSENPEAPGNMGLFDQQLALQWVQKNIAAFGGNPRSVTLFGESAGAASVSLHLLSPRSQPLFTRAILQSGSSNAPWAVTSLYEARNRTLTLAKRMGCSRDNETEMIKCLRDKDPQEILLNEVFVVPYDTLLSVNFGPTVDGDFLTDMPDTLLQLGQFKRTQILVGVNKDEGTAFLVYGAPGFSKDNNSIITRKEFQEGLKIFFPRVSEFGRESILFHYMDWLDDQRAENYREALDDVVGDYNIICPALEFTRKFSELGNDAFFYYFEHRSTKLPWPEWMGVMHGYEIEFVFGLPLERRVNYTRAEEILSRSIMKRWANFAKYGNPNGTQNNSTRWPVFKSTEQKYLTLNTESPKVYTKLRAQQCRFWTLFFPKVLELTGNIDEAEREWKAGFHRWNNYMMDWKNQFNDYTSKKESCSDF
Kind of data set: biochemical. The class given is biochemical. The following applies: for IC50: BChE from equine serum, mean ±SEM of three; for inhibition at 10 µM: read-out: BChE % inhibition at 10 μM. As for the experimental part:
as §1, §2

Data set [2] deals with T3, Acetylcholinesterase from electric eel (Electrophorus electricus, UniProt O42275).
T3 construct: purchased Sigma Aldrich, Milan, Italy
T3 sequence (O42275 24-633): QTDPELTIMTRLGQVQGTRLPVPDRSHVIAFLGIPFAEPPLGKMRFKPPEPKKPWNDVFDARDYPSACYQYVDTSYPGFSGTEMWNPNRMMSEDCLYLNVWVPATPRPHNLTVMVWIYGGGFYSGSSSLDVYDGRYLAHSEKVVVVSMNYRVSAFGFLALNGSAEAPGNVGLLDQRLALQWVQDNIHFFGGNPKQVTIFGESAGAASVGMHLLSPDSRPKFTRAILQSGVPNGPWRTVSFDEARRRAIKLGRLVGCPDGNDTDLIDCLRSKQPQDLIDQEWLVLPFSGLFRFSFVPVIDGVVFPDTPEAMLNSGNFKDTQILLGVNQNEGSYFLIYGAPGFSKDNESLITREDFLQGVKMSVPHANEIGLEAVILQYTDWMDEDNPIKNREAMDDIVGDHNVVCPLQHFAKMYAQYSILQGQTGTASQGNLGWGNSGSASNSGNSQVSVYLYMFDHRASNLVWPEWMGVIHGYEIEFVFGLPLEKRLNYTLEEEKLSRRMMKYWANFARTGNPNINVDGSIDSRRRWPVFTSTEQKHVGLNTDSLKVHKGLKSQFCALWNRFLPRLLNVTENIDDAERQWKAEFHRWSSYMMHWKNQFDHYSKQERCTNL
The experiment in a line: biochemical. It is filed as biochemical. The conditions noted are these: AChE from electric eel; mean ±SEM of three. As for the experimental part: as §1, §2

A further data set addresses T4, eeAChE (Electrophorus electricus, UniProt O42275).
T4 construct: purchased Sigma Aldrich, Milan, Italy
Kind of data set: Inhibition kinetics of eeAChE (Lineweaver-Burk). The class given is biochemical. The conditions noted are these: for mechanism of inhibition toward eeAChE: Lineweaver–Burk plots; for Ki: eeAChE, inhibitor 0 to 5 μM, acetylthiocholine 33 to 200 μM. As for the experimental part: as §2, with “Enzyme kinetics were used as tool for investigating the inhibition mechanism toward AChE. Compounds 8, bearing a meta-bromobenzyloxy substituent at coumarin C7, and 24, branched with a glycinamide chain as the variation at position 4, were chosen as prototypes bearing different head-or-tail modification schemes. […]. All” for “All”, “USA). […]” for “USA).”

The target in a further data set is T5, human recombinant MAO B (Homo sapiens, UniProt P27338).
T5 construct: purchased Sigma Aldrich, Milan, Italy
T5 sequence (P27338 1-520): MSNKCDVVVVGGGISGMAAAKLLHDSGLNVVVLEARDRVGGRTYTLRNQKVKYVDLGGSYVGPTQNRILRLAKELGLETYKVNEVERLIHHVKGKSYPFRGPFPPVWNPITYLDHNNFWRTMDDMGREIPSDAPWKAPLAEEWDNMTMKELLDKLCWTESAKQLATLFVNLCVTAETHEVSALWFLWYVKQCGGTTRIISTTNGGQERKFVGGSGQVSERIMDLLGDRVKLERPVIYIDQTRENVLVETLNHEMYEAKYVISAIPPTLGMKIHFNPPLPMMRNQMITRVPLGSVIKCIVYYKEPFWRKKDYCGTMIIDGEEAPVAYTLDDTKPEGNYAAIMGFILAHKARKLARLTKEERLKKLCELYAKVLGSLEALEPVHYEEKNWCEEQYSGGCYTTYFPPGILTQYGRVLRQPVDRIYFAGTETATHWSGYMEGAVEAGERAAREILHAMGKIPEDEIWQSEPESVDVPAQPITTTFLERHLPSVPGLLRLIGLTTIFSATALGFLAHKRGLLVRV
Kind of data set: Human recombinant MAO B inhibition (kynuramine fluorescence). It is filed as biochemical. The conditions noted are these: for IC50: mean ±SEM of three independent experiments. As for the experimental part:
as §1, §2

The test system of the next data set is CYP450s. Also on record: method as in PMID 19810674. The following applies: cited from earlier work.
Details of data set [3]: method as in PMID 19810674. The following applies: cited from earlier work.
The next data set concerns rat MAO B. Details: method as in PMID 19810674. The conditions noted are these: cited from earlier work.
[4] abbreviates: human recombinant MAO, mean ±SEM of three independent experiments, read-out: MAO A IC50.
Where [5] appears, read: human recombinant MAO, read-out: MAO B IC50.

The values that follow come from paper PMC6943664 (Molecules, 2019).

Like-named read-outs stand apart in the source and are kept apart here.

T4 sequence (O42275 24-633): as the sequence (O42275 24-633) above

As to `CNCc1cc(=O)oc2cc(OCc3cccc(Br)c3)ccc12` [compound 8, 7-[(3-bromobenzyl)oxy]-4-[(methylamino)methyl]-2H-chromen-2-one], the IC50 at human recombinant MAO A (setting [4]) came to 2310 ± 40 nM; in data set [1] it was 2900 ± 400 nM; in data set [2], 2000 ± 40 nM; on human recombinant MAO B (setting [5]), 2.2 ± 0.1 nM. Besides, on eeAChE, the “mechanism of inhibition toward eeAChE” value is “mixed-type”. On eeAChE, this molecule yielded a Ki of 2910 nM.
As to `CNCc1cc(=O)oc2cc(OCc3cccc(Cl)c3)ccc12` [compound 3, 7-[(3-chlorobenzyl)oxy]-4-[(methylamino)methyl]-2H-chromen-2-one], in the data set on CYP450s, the CYP450s liability result is on record as “poor”. Besides, the IC50 at human recombinant MAO A was 650 ± 20 nM; in data set [2], 6200 ± 700 nM; at human recombinant MAO B (MAO B IC50, human recombinant MAO) it was 3.9 ± 0.8 nM; with rat MAO B (rat enzyme), 13 nM. Also, the inhibition at 10 µM in data set [1] is 43 ± 5%. For the same molecule, the “blood–brain barrier penetration” value in data set [3] was “rapid”. Besides, the “SI (MAO A/MAO B selectivity)” value at human recombinant MAO B (human MAOs) turned out to be 167. Besides, in the data set with rat MAO B (rat MAOs), the “SI, IC50 MAO A/IC50 MAO B” value is given as 457.
Turning to `NC(=O)CNCc1cc(=O)oc2cc(OCc3cccc(Cl)c3)ccc12` [compound 24, N^2-({7-[(3-chlorobenzyl)oxy]-2-oxo-2H-chromen-4-yl}methyl)glycinamide], the results for the IC50 (on human recombinant MAO A (setting [4]); in data set [2]; at human recombinant MAO B (setting [5])) were 77 ± 14 nM, 2200 ± 700 nM and 61 ± 13 nM, respectively. In data set [1], the inhibition at 10 µM worked out at 13 ± 2%. For the same molecule, the “mechanism of inhibition toward eeAChE” value on eeAChE was “mixed-type”. At eeAChE, this molecule gave a Ki of 3630 nM.
Consider `CCCNCc1cc(=O)oc2cc(OCc3cccc(Cl)c3)ccc12` [compound 20, 7-[(3-chlorobenzyl)oxy]-4-[(propylamino)methyl]-2H-chromen-2-one], for which the inhibition at 10 µM at human recombinant MAO A (human recombinant MAO) was determined as 48 ± 1%. For the same molecule, the IC50 in data set [1] turned out to be 3600 ± 800 nM; in data set [2], 4900 ± 1400 nM; at human recombinant MAO B (setting [5]), 9.4 ± 3.5 nM.
Consider `CNCc1cc(=O)oc2cc(OCc3cccc(N(C)C)c3)ccc12` [compound 4, 7-{[3-(Dimethylamino)benzyl]oxy}-4-[(methylamino)methyl]-2H-chromen-2-one], for which the inhibition at 10 µM was 49 ± 1% on human recombinant MAO A (human recombinant MAO) and 34 ± 5% in data set [1]. The IC50 in data set [2] amounted to 6000 ± 1500 nM; at human recombinant MAO B (setting [5]) it was 570 ± 50 nM.

As a reminder, the IC50 is the midpoint of a concentration-inhibition curve. Usually Ki stands for the dissociation constant of the complex between target and ligand, obtained from inhibition or displacement. A word on the inhibition: it is the drop in the measured response relative to a control, in per cent.
